# Experimental data reported in patent US12552783B2, “Modulators of proteolysis and associated methods of use” (Arvinas Operations, Inc., priority 2018, dated 2026).
# Target: KRas (Homo sapiens, UniProt P01116, G12C)
# Test: KRas degradation in NCI-H2030 cells by Western blot, normalized to GAPDH (data of Table 14)
# Type: cell-based
# Set-up: host or cells: NCI-H2030
# Details: H2030 cells; for Percent Degradation at Indicated Concentration (μM): 0.3: 0.3 μM; for Percent Degradation at Indicated Concentration (μM): 1: 1 μM; for Percent Degradation at Indicated Concentration (μM): 3: 3 μM; for Dmax: NCI-H2030; for Percent Degradation at Indicated Concentration (μM): 0.1: 0.1 μM
# How it was run: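 Cells plated overnight, switched to FBS-free medium for 24 h, then treated (0.3, 1, 3 μM final; 0.1% DMSO) for 24 h if VHL-based, otherwise 72 h. RIPA lysates (10 μg protein) blotted for KRas, signal normalized to GAPDH and compared with DMSO.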
Percent Degradation at Indicated Concentration (μM): 0.3,Percent Degradation at Indicated Concentration (μM): 1,Percent Degradation at Indicated Concentration (μM): 3,Dmax,Percent Degradation at Indicated Concentration (μM): 0.1,Compound
C (C ≤ 35),C (C ≤ 35),C (C ≤ 35),≤ 35%,–,"CCC(=O)N1CCN(c2nc(NCCC(=O)N(C)CCOCCOCCOc3ccc4c(c3)CN(C3CCC(=O)NC3=O)C4=O)nc3c(F)c(-c4cc(O)cc5ccccc45)c(Cl)cc23)CC1 (centres unmarked) [compound 52, 3-((6-chloro-8-fluoro-7-(3-hydroxynaphthalen-1-yl)-4-(4-propionylpiperazin-1-yl)quinazolin-2-yl)amino)-N-(2-(2-(2-((2-(2,6-dioxopiperidin-3-yl)-1-oxoisoindolin-5-yl)oxy)ethoxy)ethoxy)ethyl)-N-methylpropanamide]"
C (C ≤ 35),C (C ≤ 35),C (C ≤ 35),≤ 35%,–,"CCC(=O)N1CCN(c2nc(NCCC(=O)N(C)CCOCCOCCOCCOc3ccc4c(c3)CN(C3CCC(=O)NC3=O)C4=O)nc3c(F)c(-c4cc(O)cc5ccccc45)c(Cl)cc23)CC1 (centres unmarked) [compound 53, 3-((6-chloro-8-fluoro-7-(3-hydroxynaphthalen-1-yl)-4-(4-propionylpiperazin-1-yl)quinazolin-2-yl)amino)-N-(2-(2-(2-(2-((2-(2,6-dioxopiperidin-3-yl)-1-oxoisoindolin-5-yl)oxy)ethoxy)ethoxy)ethoxy)ethyl)-N-methylpropanamide]"
C (C ≤ 35),C (C ≤ 35),C (C ≤ 35),≤ 35%,–,"CCC(=O)N1CCN(c2nc(NCCC(=O)N(C)CCOCCOCCOCCOCCOc3ccc4c(c3)CN(C3CCC(=O)NC3=O)C4=O)nc3c(F)c(-c4cc(O)cc5ccccc45)c(Cl)cc23)CC1 (centres unmarked) [compound 54, 3-((6-chloro-8-fluoro-7-(3-hydroxynaphthalen-1-yl)-4-(4-propionylpiperazin-1-yl)quinazolin-2-yl)amino)-N-(14-((2-(2,6-dioxopiperidin-3-yl)-1-oxoisoindolin-5-yl)oxy)-3,6,9,12-tetraoxatetradecyl)-N-methylpropanamide]"
C (C ≤ 35),C (C ≤ 35),–,≤ 35%,C (C ≤ 35),"C=CC(=O)N1CCN(c2nc(NCCC(=O)N(C)CCNc3cccc4c3C(=O)N(C3CCC(=O)NC3=O)C4=O)nc3c(F)c(-c4cc(O)cc5ccccc45)c(Cl)cc23)CC1 (centres unmarked) [compound 55, 3-((4-(4-acryloylpiperazin-1-yl)-6-chloro-8-fluoro-7-(3-hydroxynaphthalen-1-yl)quinazolin-2-yl)amino)-N-(2-((2-(2,6-dioxopiperidin-3-yl)-1,3-dioxoisoindolin-4-yl)amino)ethyl)-N-methylpropanamide]"
C (C ≤ 35),C (C ≤ 35),C (C ≤ 35),≤ 35%,–,"C=CC(=O)N1CCN(c2nc(NCCC(=O)N(C)CCOCCNc3cccc4c3C(=O)N(C3CCC(=O)NC3=O)C4=O)nc3c(F)c(-c4cc(O)cc5ccccc45)c(Cl)cc23)CC1 (centres unmarked) [compound 56, 3-((4-(4-acryloylpiperazin-1-yl)-6-chloro-8-fluoro-7-(3-hydroxynaphthalen-1-yl)quinazolin-2-yl)amino)-N-(2-(2-((2-(2,6-dioxopiperidin-3-yl)-1,3-dioxoisoindolin-4-yl)amino)ethoxy)ethyl)-N-methylpropanamide]"
C (C ≤ 35),C (C ≤ 35),C (C ≤ 35),≤ 35%,–,"C=CC(=O)N1CCN(c2nc(NCCC(=O)N(C)CCOCCOCCNc3cccc4c3C(=O)N(C3CCC(=O)NC3=O)C4=O)nc3c(F)c(-c4cc(O)cc5ccccc45)c(Cl)cc23)CC1 (centres unmarked) [compound 57, 3-((4-(4-acryloylpiperazin-1-yl)-6-chloro-8-fluoro-7-(3-hydroxynaphthalen-1-yl)quinazolin-2-yl)amino)-N-(2-(2-(2-((2-(2,6-dioxopiperidin-3-yl)-1,3-dioxoisoindolin-4-yl)amino)ethoxy)ethoxy)ethyl)-N-methylpropanamide]"
C (C ≤ 35),C (C ≤ 35),C (C ≤ 35),≤ 35%,–,"C=CC(=O)N1CCN(c2nc(NCCC(=O)N(C)CCOCCOCCOCCNc3cccc4c3C(=O)N(C3CCC(=O)NC3=O)C4=O)nc3c(F)c(-c4cc(O)cc5ccccc45)c(Cl)cc23)CC1 (centres unmarked) [compound 58, 3-((4-(4-acryloylpiperazin-1-yl)-6-chloro-8-fluoro-7-(3-hydroxynaphthalen-1-yl)quinazolin-2-yl)amino)-N-(2-(2-(2-(2-((2-(2,6-dioxopiperidin-3-yl)-1,3-dioxoisoindolin-4-yl)amino)ethoxy)ethoxy)ethoxy)ethyl)-N-methylpropanamide]"
C (C ≤ 35),C (C ≤ 35),–,≤ 35%,C (C ≤ 35),"C=CC(=O)N1CCN(c2nc(NCCC(=O)N(C)CCOCCOCCOCCOCCNc3cccc4c3C(=O)N(C3CCC(=O)NC3=O)C4=O)nc3c(F)c(-c4cc(O)cc5ccccc45)c(Cl)cc23)CC1 (centres unmarked) [compound 59, 3-((4-(4-acryloylpiperazin-1-yl)-6-chloro-8-fluoro-7-(3-hydroxynaphthalen-1-yl)quinazolin-2-yl)amino)-N-(14-((2-(2,6-dioxopiperidin-3-yl)-1,3-dioxoisoindolin-4-yl)amino)-3,6,9,12-tetraoxatetradecyl)-N-methylpropanamide]"
C (C ≤ 35),C (C ≤ 35),C (C ≤ 35),≤ 35%,–,"C=CC(=O)N1CCN(c2nc(NCCC(=O)N(C)CCOCCOc3ccc4c(c3)C(=O)N(C3CCC(=O)NC3=O)C4=O)nc3c(F)c(-c4cc(O)cc5ccccc45)c(Cl)cc23)CC1 (centres unmarked) [compound 60, 3-((4-(4-acryloylpiperazin-1-yl)-6-chloro-8-fluoro-7-(3-hydroxynaphthalen-1-yl)quinazolin-2-yl)amino)-N-(2-(2-((2-(2,6-dioxopiperidin-3-yl)-1,3-dioxoisoindolin-5-yl)oxy)ethoxy)ethyl)-N-methylpropanamide]"
C (C ≤ 35),C (C ≤ 35),–,≤ 35%,C (C ≤ 35),"C=CC(=O)N1CCN(c2nc(NCCC(=O)N(C)CCOCCOCCOc3ccc4c(c3)C(=O)N(C3CCC(=O)NC3=O)C4=O)nc3c(F)c(-c4cc(O)cc5ccccc45)c(Cl)cc23)CC1 (centres unmarked) [compound 61, 3-((4-(4-acryloylpiperazin-1-yl)-6-chloro-8-fluoro-7-(3-hydroxynaphthalen-1-yl)quinazolin-2-yl)amino)-N-(2-(2-(2-((2-(2,6-dioxopiperidin-3-yl)-1,3-dioxoisoindolin-5-yl)oxy)ethoxy)ethoxy)ethyl)-N-methylpropanamide]"
C (C ≤ 35),C (C ≤ 35),C (C ≤ 35),≤ 35%,–,"C=CC(=O)N1CCN(c2nc(NCCC(=O)N(C)CCOCCOCCOCCOc3ccc4c(c3)C(=O)N(C3CCC(=O)NC3=O)C4=O)nc3c(F)c(-c4cc(O)cc5ccccc45)c(Cl)cc23)CC1 (centres unmarked) [compound 62, 3-((4-(4-acryloylpiperazin-1-yl)-6-chloro-8-fluoro-7-(3-hydroxynaphthalen-1-yl)quinazolin-2-yl)amino)-N-(2-(2-(2-(2-((2-(2,6-dioxopiperidin-3-yl)-1,3-dioxoisoindolin-5-yl)oxy)ethoxy)ethoxy)ethoxy)ethyl)-N-methylpropanamide]"
C (C ≤ 35),C (C ≤ 35),–,≤ 35%,C (C ≤ 35),"C=CC(=O)N1CCN(c2nc(NCCC(=O)N(C)CCOCCOCCOCCOCCOc3ccc4c(c3)C(=O)N(C3CCC(=O)NC3=O)C4=O)nc3c(F)c(-c4cc(O)cc5ccccc45)c(Cl)cc23)CC1 (centres unmarked) [compound 63, 3-((4-(4-acryloylpiperazin-1-yl)-6-chloro-8-fluoro-7-(3-hydroxynaphthalen-1-yl)quinazolin-2-yl)amino)-N-(14-((2-(2,6-dioxopiperidin-3-yl)-1,3-dioxoisoindolin-5-yl)oxy)-3,6,9,12-tetraoxatetradecyl)-N-methylpropanamide]"
C (C ≤ 35),C (C ≤ 35),C (C ≤ 35),≤ 35%,–,"C=CC(=O)N1CCN(c2nc(NCCC(=O)N(C)CCOc3ccc4c(c3)CN(C3CCC(=O)NC3=O)C4=O)nc3c(F)c(-c4cc(O)cc5ccccc45)c(Cl)cc23)CC1 (centres unmarked) [compound 64, 3-((4-(4-acryloylpiperazin-1-yl)-6-chloro-8-fluoro-7-(3-hydroxynaphthalen-1-yl)quinazolin-2-yl)amino)-N-(2-((2-(2,6-dioxopiperidin-3-yl)-1-oxoisoindolin-5-yl)oxy)ethyl)-N-methylpropanamide]"
C (C ≤ 35),C (C ≤ 35),C (C ≤ 35),≤ 35%,–,"C=CC(=O)N1CCN(c2nc(NCCC(=O)N(C)CCOCCOc3ccc4c(c3)CN(C3CCC(=O)NC3=O)C4=O)nc3c(F)c(-c4cc(O)cc5ccccc45)c(Cl)cc23)CC1 (centres unmarked) [compound 65, 3-((4-(4-acryloylpiperazin-1-yl)-6-chloro-8-fluoro-7-(3-hydroxynaphthalen-1-yl)quinazolin-2-yl)amino)-N-(2-(2-((2-(2,6-dioxopiperidin-3-yl)-1-oxoisoindolin-5-yl)oxy)ethoxy)ethyl)-N-methylpropanamide]"
